Structures can show the parent of a compound that is named as a salt. Where a SMILES comes first, the peptide text is derived from it.
How the values were obtained:
γδ T cells [1] = experiment: In vitro BrHPP sensitivity test: 8 day culture of peripheral lymphocytes from CML patients undergoing Gleevec therapy, flow cytometry; type: cell-based, human
Experimental: The study intends to test the sensitivity of γ962 T cells from oncology patients to BrHPP. It aims at identifying cancers and or situations in which a BrHPP treatment would be relevant and those for which it would be less or not beneficial. In brief, a small sample of blood is sufficient to prepare PBMCs and culture in the presence of BrHPP. A result of the level of in vitro amplification of gamma-delta cells by BrHPP can be obtained in about 8 days.
Upon reception of blood, 20 ml blood samples were treated by Ficoll gradient to isolate peripheral lymphocytes, which were then frozen. The lymphocytes were cultured in a 96-well plate (1 million cells/ml) for 8 days in the presence of BrHPP. The percentage of γ962 T cells were then determined by a phenotypic assay (flow cytometry).
In such small scale culture assay, a patient is considered to be responsive to an agonist following 8 days of in vitro stimulation according to two criteria: the percentage of γ962 T cells in culture as well as the rate of amplification of these cells. The amplification rate corresponds to the ratio of number of total γ962 T cells at the end of culture to the total γ962 T cells at the start of culture. The qualitative evaluation of these two criteria was divided into four levels of response, according to the Table 2.
A patient is considered sensitive to BrHPP if the sum of the values of the two criteria is ++ or +++. A classification of 0 or + is considered non-sensitive.

[2] = test system: advanced/metastatic solid tumors; experiment: Phase I clinical trial: progression free survival; type: in vivo, human
Experimental: (§1) PHOSPHOST™ (Bromohydrin pyrophosphate, BrHPP) was evaluated in an escalating dose clinical trial in patients with advanced/metastatic solid tumors. The therapeutic regimen and pharmaco-toxicology of BrHPP in combination with low dose of IL-2 have previously been characterized in non human primates. The patients received at least 3 injections of BrHPP 3 weeks apart, concomitant with low dose of IL-2 (1 million IU/m^2/day). Pharmacological response was monitored all along the treatment. Based on the results of the phase I trial, a multicenter phase II study on metastatic RCC patients has been scheduled. The clinical drug product was a 200 mg/vial of lyophilized Phosphostim (expressed in mg equivalent of BrHPP anionic form.). The formulation of Phosphostim was reconstituted immediately prior to use with 2 ml of water for injections to make a 100 mg/ml solution. The reconstituted product was diluted in a total volume of 100 ml of ringer lactate buffer infusion vehicle. Phosphostim was administered intravenously over 1 hour.
The clinical trial was therefore a phase I, single arm, open-label, national, multi-center, dose-escalation trial in sequential cohorts of patients with advanced/metastatic solid tumors.
Patients were sequentially allotted to cohorts of progressively higher dose levels of Phosphostim. […] The objective tumor response was assessed after 3 cycles (i.e., every 9 weeks).

γ9δ2 T cells = experiment: Dose range activation of γδ T cells following iv injection of BrHPP (GLP pharmacology studies); type: in vivo, non-human primates
Vγ9Vδ2 T cells = experiment: Phase I escalating dose clinical trial: amplification of Vγ9Vδ2 T cells by flow cytometry in chemotherapy-treated patients; type: in vivo, human; conditions: after second administration (with IL-2)
Experimental: Blood samples (4 ml) were withdrawn into EDTA containing tubes. Tubes were shipped overnight at room temperature (RT) before flow cytometry analyses.
Peripheral lymphocytes were analyzed by flow cytometry on total blood, after triple staining with anti-Vdelta2FITC, anti-CD3PE and anti-CD25PC5 antibodies (Vdelta2-FITC : IMMU389 clone, Immunotech-Beckman-Coulter, Marseilles, France; CD3-PE : UCHTI clone, Immunotech-Beckman-Coulter; CD25PC5 : M-A251 clone, Becton Dickinson, Le Pont de Claix, France).
Briefly, 100 μl patient blood was incubated 15 min at RT with 10 μl anti-Vdelta2-FITC, 10 μl anti-CD3-PE and 10 μl anti-CD25PC5 antibodies. Antibodies were washed with 3 ml 1× PBS, centrifuged for 4 min at 1300 rpm at RT and supernatant was discarded. Red cells were lysed with the OptiLyse B reagent (Immunotech-Beckman-Coulter, Marseilles, France) according to the manufacturer's instructions. At the final step, stained white blood cells were recovered by centrifugation and resuspended in 300 μl 1× PBS+0.2% PFA. Flow cytometry analysis on viable cells was performed on a FacsSCAN apparatus (Becton Dickinson) with the FacsDiva software.
as §1
All patient cohorts received repeated 3-week cycles of Phosphostim alone for the first cycle and Phosphostim in combination with IL-2 for the subsequent cycles. • first cycle: Phosphostim alone, • subsequent cycles: Phosphostim in combination with IL-2
Patients were sequentially allotted to cohorts of progressively higher dose levels of Phosphostim. […] The objective tumor response was assessed after 3 cycles (i.e., every 9 weeks). […]
Drug plasma levels were measured during the first and the second cycles in all patients. […] Biological effect was monitored throughout the trial and studied on PBMC and plasma. […]

γδ T cells [3] = experiment: BrHPP-induced amplification of γδ T cells in monkeys treated with imatinib mesylate; type: in vivo; conditions: BrHPP iv plus IL-2 with oral daily imatinib mesylate 15 mg/kg versus BrHPP alone; days 6 and 20
human γ9δ2 T cells = experiment: Combination of BrHPP and tyrosine kinase inhibitors on amplification of Vd2/Vg9 T cells in NOD SCID mice; type: in vivo; conditions: BrHPP 50 mg/kg i.p. day 0, IL-2 day 0 to 4, TKI from day 0 for 3 to 5 days; peritoneal lavage day 8
Experimental: Cell line: human PBMC whose γ9δ2 T cells percentage is higher than 0.5% and which has been previously tested for the “sensitivity test”. They were thawed one hour before injection and maintained for one hour in complete medium (RPMI 1640 supplemented with 2 mM L-glutamine, 1 mM Sodium Pyruvate (all from Gibco-BRL, Life Science, Invitrogen) and 10% heat inactivated Fetal Calf Serum (Fetal clone)) in incubator at 37° C.
• FITC anti human V82,Immunotech, ref 1464 • PerCpCy5.5 anti human CD3, Pharmingen, ref 552552 • APC anti human Vγ9 • APC Cy7 anti human CD45, Pharmingen, ref 348815 • PE anti human CD56, Pharmingen, ref 556647
Mice used included (a) NOD SCID female mice aged 8-10 weeks from Charles River Laboratories. Mice were fed and housed under sterilized conditions in Innate-Pharma's animal facility, and (b)NOD SCID female mice aged 10-12 weeks bred at Innate Pharma.
Each group contained 5 mice. Following transfer of human PBMC cells described above, the 4 groups received BrHPP (50 mg/kg, i.p.) on day 0 and IL-2 (2 M/m^2, s.c.) every day from day 0 to day 4. […] On day 8 mice were sacrificed, cells were collected by peritoneal lavage, and γ9δ2 T cell proliferation was assessed by flow cytometry.

[4] = test system: advanced drug refractory ovarian cancer; conditions: in vivo; cited from earlier work
various lung cancers = conditions: in vivo; cited from earlier work
[5] = test system: previously treated metastatic breast cancer; conditions: in vivo; cited from earlier work
[6] = test system: histone deacetylase (HDAC); conditions: cited from earlier work
[7] = phosphostim plus IL-2, iv injection

## 3-(bromomethyl)-3-butanol-1-yl-diphosphate [BrHPP]
γδ T cells [1]; of 19 CML patients undergoing imitanib mesylate treatment
  non-sensitive patients: One
γδ T cells [1]; of 19 CML patients undergoing imitanib mesylate treatment, sum of the two criteria of Table 2
  patients with values of either ++ or +++ (responsive to BrHPP induced amplification): 18 patients
[2]; Patient 3 (0018), metastatic renal cell carcinoma, two cycles, 1800 mg/m^2
  PFS (progression free survival): 72 weeks
[2]; Patient 4 (0017), colon cancer, three cycles, 1200 mg/m^2
  PFS: 39 weeks
γ9δ2 T cells; in most animals (except some treated with a high dose)
  γ9δ2 T cell levels return to basal level: 14 days
γ9δ2 T cells; [7]
  EC50 in vivo: about 60 mg/kg
  dose at which a plateau seems to be reached: 97 mg/kg
  dose from which the effect is detected: ≥ 2.4 mg/kg
Vγ9Vδ2 T cells; Patient 1 (0035), colon cancer, 1500 mg/m2, within six months of Cetuximab/Irinotecan therapy
  amplification rate of Vγ9Vδ2 T cells: 11 ×
Vγ9Vδ2 T cells; Patient 2 (0039), colon cancer, 1500, Erbitux/Irinotecan ending within three months before
  amplification rate of Vγ9Vδ2 T cells: 6.4 ×
Vγ9Vδ2 T cells; Patient 3 (0018), metastatic renal cell carcinoma, 1800 mg/m^2, prior BAY 43-9006 and Avastin ending within a month before
  amplification rate of Vγ9Vδ2 T cells: 6.2 ×
Vγ9Vδ2 T cells; Patient 4 (0017), colon cancer, 1200 mg/m^2, Oxaliplatin/5FU/Elvorine/Vinflumine ending within three months before
  amplification rate of Vγ9Vδ2 T cells: 4.3 ×

## Cc1ccc(NC(=O)c2ccc(CN3CCN(C)CC3)cc2)cc1Nc1nccc(-c2cccnc2)n1 [Gleevec, imatinib mesylate, reference compound]
γδ T cells [1]; 8 days culture with BrHPP
  sensitivity of T cells from Gleevec-treated CML patients to γ9δ2 T cell agonists such as BrHPP: remain sensitive
γδ T cells [3]
  effect on γδ T cell proliferation (percentage of γ9δ2 T cells among total cells): does not significantly impair

## CNC(=O)c1cc(Oc2ccc(NC(=O)Nc3ccc(Cl)c(C(F)(F)F)c3)cc2)ccn1 [Sorafenib, sorafenib]
Human γ9δ2 T cells
  effect on γδ T cell proliferation (percentage of γ9δ2 T cells among total cells): does not impair

## CC(=O)O[C@H]1C(=O)[C@@]2(C)[C@H]([C@H](OC(=O)c3ccccc3)[C@]3(O)C[C@H](OC(=O)[C@H](O)[C@@H](NC(=O)c4ccccc4)c4ccccc4)C(C)=C1C3(C)C)[C@]1(OC(C)=O)CO[C@@H]1C[C@@H]2O [taxol, Paclitaxel]
[4]
  response rate: 19-36%
Various lung cancers
  response rate: 21-37%
[5]
  response rate: 27-62%

## O=C(CCCCC[C@@H]1NC(=O)[C@H]2CCCCN2C(=O)[C@H](Cc2ccccc2)NC(=O)[C@H](Cc2ccccc2)NC1=O)C1CO1 (some centres unmarked) [trapoxin (TPX), trapoxin] (HELM PEPTIDE1{F.F.[O=C([C@H]1CCCCN1[*:1])[*:2]].[O=C(CCCCC[C@H](N[*:1])C(=O)[*:2])C1CO1]}$PEPTIDE1,PEPTIDE1,1:R1-4:R2$$$V2.0)
[6]
  concentration at which HDAC is inhibited: nanomolar concentrations

## CC(/C=C/C(=O)NO)=C\[C@@H](C)C(=O)c1ccc(N(C)C)cc1 [trichostatin A]
[6]
  concentration at which HDAC is inhibited: nanomolar concentrations

Source: patent US20100029674A1, “Methods of Using Phosphoantigen for the Treatment of Cancer” (INNATE PHARMA, S.A., priority 2007, published 2010)
